From patent US8119624B2, “Fused phenyl amido heterocyclic compounds” (Pfizer Inc., priority 2006, dated 2012) come the findings set out here.

The structures appear in SMILES notation. pEC50: −log10 of the molar value.

In this assay the target is T1, Full-length glucokinase (beta cell isoform) (Homo sapiens, UniProt P35557).
T1 construct: Full-length glucokinase (beta cell isoform) was His-tagged at N-terminus; His tag (N); made in house
T1 sequence (P35557 1-465): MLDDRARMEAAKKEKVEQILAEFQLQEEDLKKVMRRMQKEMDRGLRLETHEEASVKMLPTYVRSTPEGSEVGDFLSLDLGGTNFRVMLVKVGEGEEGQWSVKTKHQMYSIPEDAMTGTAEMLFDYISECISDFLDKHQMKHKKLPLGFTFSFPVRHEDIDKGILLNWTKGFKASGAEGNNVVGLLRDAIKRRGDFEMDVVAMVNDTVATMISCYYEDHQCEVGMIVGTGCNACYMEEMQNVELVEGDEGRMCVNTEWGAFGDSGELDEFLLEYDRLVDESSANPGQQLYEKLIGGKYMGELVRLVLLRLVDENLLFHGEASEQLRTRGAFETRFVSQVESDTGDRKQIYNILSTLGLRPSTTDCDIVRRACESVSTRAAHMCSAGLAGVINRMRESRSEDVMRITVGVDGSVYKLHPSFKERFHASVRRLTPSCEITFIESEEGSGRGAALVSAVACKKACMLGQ
Description: Glucokinase biochemical assay (PK/LDH-coupled, NADH depletion at 340 nm): % activation, EC50, % max activation. To be noted: 5 mM glucose; for activation at 10 µM: 10 uM compound, % Activation=(Va/Vo−1)×100, read-out: % Activation at 10 uM; for pEC50: GK activation, read-out: EC50; for Emax: fitted maximum activation, read-out: % Max Activation. An outline of the steps:
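Activation expressed as (Va/Vo−1)×100, where initial rates with and without compound come from NADH depletion at 340 nm over 200–900 s. Enzyme is His-tagged human beta-cell GK, full length, run at room temperature in HEPES buffer with 1 mM ATP and 5 mM glucose. DMSO 1%.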

For the molecule `CC(Oc1cc(C(=O)Nc2ccn(C)n2)cc2c1CC(C)(C)O2)c1ccncn1` (stereo not shown) [Example 86, 2,2-Dimethyl-4-(1-pyrimidin-4-yl-ethoxy)-2,3-dihydro-benzofuran-6-carboxylic acid (1-methyl-1H-pyrazol-3-yl)-amide], the activation at 10 µM worked out at 124%, the pEC50 was 5.32 and the Emax worked out at 159%.

With `Cc1ccnc(C(C)Oc2cc(C(=O)Nc3ccn(C)n3)cc3c2CC(C)(C)O3)c1` (stereo not shown) [Example 87, 2,2-Dimethyl-4-[1-(4-methyl-pyridin-2-yl)-ethoxy]-2,3-dihydro-benzofuran-6-carboxylic acid (1-methyl-1H-pyrazol-3-yl)-amide], the activation at 10 µM turned out to be 73.6%, the pEC50 is 5.07 and the Emax was 136%.

On to `Cn1ccc(NC(=O)c2cc(OCc3cc(O)nc(-c4cnccn4)n3)c3c(c2)OC(C)(C)C3)n1` [Example 88, 4-(6-Hydroxy-2-pyrazin-2-yl-pyrimidin-4-ylmethoxy)-2,2-dimethyl-2,3-dihydro-benzofuran-6-carboxylic acid (1-methyl-1H-pyrazol-3-yl)-amide], for which the activation at 10 µM was 38.2%.

For `Cn1ccc(NC(=O)c2cc(OCC3CC3)c3c(c2)OC(C)(C)C3)n1` [Example 89, 4-Cyclopropylmethoxy-2,2-dimethyl-2,3-dihydro-benzofuran-6-carboxylic acid (1-methyl-1H-pyrazol-3-yl)-amide], the activation at 10 µM stood at 139%, the pEC50 was 5.41 and the Emax amounted to 157%.

Turning to `Cc1nc(COc2cc(C(=O)Nc3ccn(C)n3)cc3c2CC(C)(C)O3)cs1` [Example 90, 2,2-Dimethyl-4-(2-methyl-thiazol-4-ylmethoxy)-2,3-dihydro-benzofuran-6-carboxylic acid (1-methyl-1H-pyrazol-3-yl)-amide], the activation at 10 µM is 112%, the negative-log EC50 (pEC50) is 5.25 and the Emax was 138%.

Take `Cn1ccc(NC(=O)c2cc(OCc3noc(C(C)(C)C)n3)c3c(c2)OC(C)(C)C3)n1` [Example 91, 4-(5-tert-Butyl-[1,2,4]oxadiazol-3-ylmethoxy)-2,2-dimethyl-2,3-dihydro-benzofuran-6-carboxylic acid (1-methyl-1H-pyrazol-3-yl)-amide]: the activation at 10 µM is 150%, the pEC50 is 5.46 and the Emax is 150%.

As for `CCOc1cc(C(=O)Nc2ccn(C)n2)cc2c1CC(C)(C)O2` [Example 92, 4-Ethoxy-2,2-dimethyl-2,3-dihydro-benzofuran-6-carboxylic acid (1-methyl-1H-pyrazol-3-yl)-amide], the activation at 10 µM came to 87%, the pEC50 was 5.02 and the Emax came out at 164%.

As to `Cn1ccc(NC(=O)c2cc(OCCCC#N)c3c(c2)OC(C)(C)C3)n1` [Example 93, 4-(3-Cyano-propoxy)-2,2-dimethyl-2,3-dihydro-benzofuran-6-carboxylic acid (1-methyl-1H-pyrazol-3-yl)-amide], the activation at 10 µM is 95.2%, the pEC50 is 5.01 and the Emax was 136%.

For `Cc1noc(COc2cc(C(=O)Nc3ccn(C)n3)cc3c2CC(C)(C)O3)n1` [Example 94, 2,2-Dimethyl-4-(3-methyl-[1,2,4]oxadiazol-5-ylmethoxy)-2,3-dihydro-benzofuran-6-carboxylic acid (1-methyl-1H-pyrazol-3-yl)-amide], the activation at 10 µM is 116%, the pEC50 was 5.36 and the Emax came to 140%.

`Cn1ccc(NC(=O)c2cc(OCc3cc(O)nc(C4CC4)n3)c3c(c2)OC(C)(C)C3)n1` [Example 95, 4-(2-Cyclopropyl-6-hydroxy-pyrimidin-4-ylmethoxy)-2,2-dimethyl-2,3-dihydro-benzofuran-6-carboxylic acid (1-methyl-1H-pyrazol-3-yl)-amide]: the activation at 10 µM came out at 143%, the pEC50 is 6.20 and the Emax amounted to 145%.

For `Cc1nc(COc2cc(C(=O)Nc3ccn(C)n3)cc3c2CC(C)(C)O3)no1` [Example 96, 2,2-Dimethyl-4-(5-methyl-[1,2,4]oxadiazol-3-ylmethoxy)-2,3-dihydro-benzofuran-6-carboxylic acid (1-methyl-1H-pyrazol-3-yl)-amide], the activation at 10 µM was determined as 107%, the pEC50 was 5.14 and the Emax was found to be 148%.

For the molecule `Cn1ccc(NC(=O)c2cc(OCC(=O)c3ccc(CO)cc3)c3c(c2)OC(C)(C)C3)n1` [Example 97, 4-[2-(4-Hydroxymethyl-phenyl)-2-oxo-ethoxy]-2,2-dimethyl-2,3-dihydro-benzofuran-6-carboxylic acid (1-methyl-1H-pyrazol-3-yl)-amide], the activation at 10 µM was 131%, the pEC50 is 5.47 and the Emax is 123%.

Take `Cn1ccc(NC(=O)c2cc(OCc3nc(-c4ccccn4)no3)c3c(c2)OC(C)(C)C3)n1` [Example 98, 2,2-Dimethyl-4-(3-pyridin-2-yl-[1,2,4]oxadiazol-5-ylmethoxy)-2,3-dihydro-benzofuran-6-carboxylic acid (1-methyl-1H-pyrazol-3-yl)-amide]: the activation at 10 µM came out at 154%, the pEC50 was 5.80 and the Emax is 165%.

Regarding `Cc1ncsc1CCOc1cc(C(=O)Nc2ccn(C)n2)cc2c1CC(C)(C)O2` [Example 99, 2,2-Dimethyl-4-[2-(4-methyl-thiazol-5-yl)-ethoxy]-2,3-dihydro-benzofuran-6-carboxylic acid (1-methyl-1H-pyrazol-3-yl)-amide], the activation at 10 µM came out at 112%, the pEC50 was 5.37 and the Emax is 136%.

For `CCCc1noc(COc2cc(C(=O)Nc3ccn(C)n3)cc3c2CC(C)(C)O3)n1` [Example 100, 2,2-Dimethyl-4-(3-propyl-[1,2,4]oxadiazol-5-ylmethoxy)-2,3-dihydro-benzofuran-6-carboxylic acid (1-methyl-1H-pyrazol-3-yl)-amide], the activation at 10 µM was 171%, the pEC50 is 5.80 and the Emax came to 156%.

As for `COC(C)CCOc1cc(C(=O)Nc2ccn(C)n2)cc2c1CC(C)(C)O2` (stereo not shown) [Example 101, 4-(3-Methoxy-butoxy)-2,2-dimethyl-2,3-dihydro-benzofuran-6-carboxylic acid (1-methyl-1H-pyrazol-3-yl)-amide], the activation at 10 µM came out at 94.7%, the pEC50 was 5.22 and the Emax was 125%.

Take `C[C@@H](CO)COc1cc(C(=O)Nc2ccn(C)n2)cc2c1CC(C)(C)O2` [Example 102, 4-((S)-3-Hydroxy-2-methyl-propoxy)-2,2-dimethyl-2,3-dihydro-benzofuran-6-carboxylic acid (1-methyl-1H-pyrazol-3-yl)-amide]: the activation at 10 µM is 92.6%, the pEC50 is 5.06 and the Emax stood at 137%.

`Cc1ccc(C(=O)COc2cc(C(=O)Nc3ccn(C)n3)cc3c2CC(C)(C)O3)cn1` [Example 103, 2,2-Dimethyl-4-[2-(6-methyl-pyridin-3-yl)-2-oxo-ethoxy]-2,3-dihydro-benzofuran-6-carboxylic acid (1-methyl-1H-pyrazol-3-yl)-amide]: the activation at 10 µM came out at 78.9%, the pEC50 was 5.33 and the Emax stood at 94%.

The term pEC50 denotes −log10 of the EC50, conventionally taken in molar units.
